Assay results taken from ChEMBL document CHEMBL4507270 (2021).

What was measured:
[1] = molecular target: Activin receptor type-2B (Homo sapiens) (UniProt Q13705)
[2] = molecular target: Serine/threonine-protein kinase OSR1 (Homo sapiens) (UniProt O95747)
[3] = molecular target: Aurora kinase B (Homo sapiens) (UniProt Q96GD4)
[4] = molecular target: Serine/threonine-protein kinase WNK2 (Homo sapiens) (UniProt Q9Y3S1)
[5] = molecular target: 5-hydroxytryptamine receptor 2A (Homo sapiens) (UniProt P28223); conditions: Compound concentration 10.0 uM
[6] = molecular target: Serine/threonine-protein kinase PRP4 homolog (Homo sapiens) (UniProt Q13523)
[7] = molecular target: Calcium/calmodulin-dependent protein kinase type 1G (Homo sapiens) (UniProt Q96NX5)
[8] = system: Phosphatidylinositol 4,5-bisphosphate 3-kinase catalytic subunit alpha isoform (Homo sapiens), P42336 [M1043I]
[9] = molecular target: Cyclin-dependent kinase 2 homolog (Plasmodium falciparum (isolate 3D7)) (UniProt P61075)
[10] = molecular target: Calcium/calmodulin-dependent protein kinase type II subunit delta (Homo sapiens) (UniProt Q13557)
[11] = molecular target: Serine/threonine-protein kinase DCLK3 (Homo sapiens) (UniProt Q9C098)
[12] = molecular target: Phosphorylase b kinase regulatory subunit alpha, liver isoform (Homo sapiens) (UniProt P46019)
[13] = molecular target: Mitogen-activated protein kinase kinase kinase 6 (Homo sapiens) (UniProt O95382)
[14] = molecular target: Dual specificity mitogen-activated protein kinase kinase 2 (Homo sapiens) (UniProt P36507)
[15] = molecular target: Ribosomal protein S6 kinase beta-1 (Homo sapiens) (UniProt P23443)
[16] = molecular target: Serine/threonine-protein kinase TNNI3K (Homo sapiens) (UniProt Q59H18)
[17] = molecular target: Myosin light chain kinase family member 4 (Homo sapiens) (UniProt Q86YV6)
[18] = molecular target: Mitogen-activated protein kinase kinase kinase 5 (Homo sapiens) (UniProt Q99683)
[19] = molecular target: MAP kinase-interacting serine/threonine-protein kinase 2 (Homo sapiens) (UniProt Q9HBH9)
[20] = molecular target: Death-associated protein kinase 3 (Homo sapiens) (UniProt O43293)
[21] = molecular target: Ephrin type-A receptor 8 (Homo sapiens) (UniProt P29322)
[22] = molecular target: NUAK family SNF1-like kinase 1 (Homo sapiens) (UniProt O60285)
[23] = molecular target: Dual specificity mitogen-activated protein kinase kinase 5 (Homo sapiens) (UniProt Q13163)
[24] = molecular target: Alpha-1A adrenergic receptor (Homo sapiens) (UniProt P35348); conditions: Compound concentration 10.0 uM
[25] = molecular target: Ephrin type-B receptor 6 (Homo sapiens) (UniProt O15197)
[26] = system: Epidermal growth factor receptor (Homo sapiens), P00533 [L858R,T790M]
[27] = molecular target: Histamine H2 receptor (Homo sapiens) (UniProt P25021); conditions: Compound concentration 10.0 uM
[28] = molecular target: Activin receptor type-1 (Homo sapiens) (UniProt Q04771)
[29] = molecular target: Cyclin-dependent kinase 4 (Homo sapiens) (UniProt P11802)
[30] = molecular target: Mitogen-activated protein kinase kinase kinase kinase 3 (Homo sapiens) (UniProt Q8IVH8)
[31] = molecular target: Serine/threonine-protein kinase Chk1 (Homo sapiens) (UniProt O14757)
[32] = molecular target: Serine/threonine-protein kinase pim-1 (Homo sapiens) (UniProt P11309)
[33] = molecular target: Serine/threonine-protein kinase WNK4 (Homo sapiens) (UniProt Q96J92)
[34] = molecular target: Phosphorylase b kinase gamma catalytic chain, skeletal muscle/heart isoform (Homo sapiens) (UniProt Q16816)
[35] = molecular target: Ribosomal protein S6 kinase alpha-3 (Homo sapiens) (UniProt P51812)
[36] = molecular target: Serine/threonine-protein kinase RIO1 (Homo sapiens) (UniProt Q9BRS2)
[37] = molecular target: Serine/threonine-protein kinase Nek10 (Homo sapiens) (UniProt Q6ZWH5)
[38] = molecular target: Kappa-type opioid receptor (Homo sapiens, UniProt P41145); experiment: GPCRScan assay: inhibition of KOR; parameters: radioligand conc. used [nm] 0.6 – 1.2, parental cells stable HEK
Angiopoietin-1 receptor = Angiopoietin-1 receptor (Homo sapiens, UniProt Q02763)
[39] = molecular target: Rhodopsin kinase GRK1 (Homo sapiens) (UniProt Q15835)
[40] = molecular target: TRAF2 and NCK-interacting protein kinase (Homo sapiens) (UniProt Q9UKE5)
[41] = system: Phosphatidylinositol 4,5-bisphosphate 3-kinase catalytic subunit alpha isoform (Homo sapiens), P42336 [E545K]
[42] = molecular target: Dual specificity protein kinase CLK3 (Homo sapiens) (UniProt P49761)
[43] = molecular target: Muscarinic acetylcholine receptor M1 (Homo sapiens) (UniProt P11229); conditions: Compound concentration 10.0 uM
[44] = molecular target: Serine/threonine-protein kinase PknB (Mycobacterium tuberculosis) (UniProt P9WI81)
[45] = Compound concentration 1000.0 nM
[46] = Compound concentration 100.0 nM

Kappa-type opioid receptor, sequence (P41145 whole entry): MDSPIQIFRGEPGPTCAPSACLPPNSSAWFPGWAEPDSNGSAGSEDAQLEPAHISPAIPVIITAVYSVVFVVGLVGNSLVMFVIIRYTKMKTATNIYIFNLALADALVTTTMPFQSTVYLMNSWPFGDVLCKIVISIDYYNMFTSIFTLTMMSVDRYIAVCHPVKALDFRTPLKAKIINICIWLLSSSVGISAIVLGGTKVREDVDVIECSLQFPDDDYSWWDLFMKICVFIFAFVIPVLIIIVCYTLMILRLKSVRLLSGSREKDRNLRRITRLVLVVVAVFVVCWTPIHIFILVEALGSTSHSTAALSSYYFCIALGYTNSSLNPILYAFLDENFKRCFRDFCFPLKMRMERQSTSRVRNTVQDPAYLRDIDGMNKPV
Rhodopsin kinase GRK1 (Homo sapiens), sequence (Q15835 whole entry): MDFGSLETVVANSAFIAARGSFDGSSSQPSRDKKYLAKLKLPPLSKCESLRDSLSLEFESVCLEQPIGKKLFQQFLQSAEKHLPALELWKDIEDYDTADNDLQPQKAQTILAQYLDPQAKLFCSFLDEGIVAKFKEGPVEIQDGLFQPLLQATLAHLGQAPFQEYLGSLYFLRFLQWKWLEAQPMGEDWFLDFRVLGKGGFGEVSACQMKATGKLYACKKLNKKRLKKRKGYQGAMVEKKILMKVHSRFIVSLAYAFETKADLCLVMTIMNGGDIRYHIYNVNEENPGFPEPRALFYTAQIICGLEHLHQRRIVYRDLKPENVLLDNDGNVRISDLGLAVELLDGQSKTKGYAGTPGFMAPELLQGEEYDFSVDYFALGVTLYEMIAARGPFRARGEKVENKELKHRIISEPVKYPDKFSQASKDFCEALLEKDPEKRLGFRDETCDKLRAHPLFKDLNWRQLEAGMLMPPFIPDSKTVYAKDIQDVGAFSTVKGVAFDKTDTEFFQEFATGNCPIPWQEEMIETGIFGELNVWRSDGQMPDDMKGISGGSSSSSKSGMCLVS
Calcium/calmodulin-dependent protein kinase type II subunit delta (Homo sapiens), sequence (Q13557 whole entry): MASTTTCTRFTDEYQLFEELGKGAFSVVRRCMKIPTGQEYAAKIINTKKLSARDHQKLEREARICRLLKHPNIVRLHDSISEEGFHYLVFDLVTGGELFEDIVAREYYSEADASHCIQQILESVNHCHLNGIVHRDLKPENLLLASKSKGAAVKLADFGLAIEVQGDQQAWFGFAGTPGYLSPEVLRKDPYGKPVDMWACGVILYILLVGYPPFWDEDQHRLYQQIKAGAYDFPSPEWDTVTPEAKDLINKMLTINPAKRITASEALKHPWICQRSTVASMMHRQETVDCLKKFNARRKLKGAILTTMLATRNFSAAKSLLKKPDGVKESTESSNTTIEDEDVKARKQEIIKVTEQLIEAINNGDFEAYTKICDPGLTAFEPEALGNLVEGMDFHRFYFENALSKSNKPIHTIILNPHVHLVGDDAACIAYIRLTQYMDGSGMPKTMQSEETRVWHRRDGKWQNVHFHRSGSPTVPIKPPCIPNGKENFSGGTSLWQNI
Serine/threonine-protein kinase OSR1 (Homo sapiens), sequence (O95747 2-527 limits assumed): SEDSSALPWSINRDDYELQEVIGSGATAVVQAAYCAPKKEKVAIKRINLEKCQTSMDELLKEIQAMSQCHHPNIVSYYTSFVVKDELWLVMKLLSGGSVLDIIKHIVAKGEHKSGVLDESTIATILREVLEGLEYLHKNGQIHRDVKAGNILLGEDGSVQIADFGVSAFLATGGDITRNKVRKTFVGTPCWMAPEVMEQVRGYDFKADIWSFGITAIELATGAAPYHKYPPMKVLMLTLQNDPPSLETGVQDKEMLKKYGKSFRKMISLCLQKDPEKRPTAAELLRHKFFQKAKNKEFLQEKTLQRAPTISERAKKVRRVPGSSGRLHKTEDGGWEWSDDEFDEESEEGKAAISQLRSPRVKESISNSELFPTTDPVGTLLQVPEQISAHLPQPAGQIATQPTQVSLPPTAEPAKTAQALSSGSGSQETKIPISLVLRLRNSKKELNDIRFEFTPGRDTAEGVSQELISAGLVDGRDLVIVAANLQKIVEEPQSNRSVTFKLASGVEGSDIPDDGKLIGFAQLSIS
5-hydroxytryptamine receptor 2A (Homo sapiens), sequence (P28223 whole entry): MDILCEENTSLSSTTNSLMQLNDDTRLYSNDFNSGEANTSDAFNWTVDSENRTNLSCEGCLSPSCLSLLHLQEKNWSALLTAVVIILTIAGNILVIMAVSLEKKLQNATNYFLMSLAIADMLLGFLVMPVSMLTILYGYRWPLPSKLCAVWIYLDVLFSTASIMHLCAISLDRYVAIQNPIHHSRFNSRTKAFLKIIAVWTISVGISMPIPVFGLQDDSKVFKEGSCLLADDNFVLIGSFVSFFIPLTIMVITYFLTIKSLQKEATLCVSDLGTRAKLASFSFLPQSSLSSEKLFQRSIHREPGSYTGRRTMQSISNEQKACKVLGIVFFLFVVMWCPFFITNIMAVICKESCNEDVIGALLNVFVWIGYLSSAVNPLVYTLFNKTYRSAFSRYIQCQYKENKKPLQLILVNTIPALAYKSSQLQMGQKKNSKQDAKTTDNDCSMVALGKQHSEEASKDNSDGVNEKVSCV
Serine/threonine-protein kinase WNK4 (Homo sapiens), sequence (Q96J92 whole entry, canonical isoform): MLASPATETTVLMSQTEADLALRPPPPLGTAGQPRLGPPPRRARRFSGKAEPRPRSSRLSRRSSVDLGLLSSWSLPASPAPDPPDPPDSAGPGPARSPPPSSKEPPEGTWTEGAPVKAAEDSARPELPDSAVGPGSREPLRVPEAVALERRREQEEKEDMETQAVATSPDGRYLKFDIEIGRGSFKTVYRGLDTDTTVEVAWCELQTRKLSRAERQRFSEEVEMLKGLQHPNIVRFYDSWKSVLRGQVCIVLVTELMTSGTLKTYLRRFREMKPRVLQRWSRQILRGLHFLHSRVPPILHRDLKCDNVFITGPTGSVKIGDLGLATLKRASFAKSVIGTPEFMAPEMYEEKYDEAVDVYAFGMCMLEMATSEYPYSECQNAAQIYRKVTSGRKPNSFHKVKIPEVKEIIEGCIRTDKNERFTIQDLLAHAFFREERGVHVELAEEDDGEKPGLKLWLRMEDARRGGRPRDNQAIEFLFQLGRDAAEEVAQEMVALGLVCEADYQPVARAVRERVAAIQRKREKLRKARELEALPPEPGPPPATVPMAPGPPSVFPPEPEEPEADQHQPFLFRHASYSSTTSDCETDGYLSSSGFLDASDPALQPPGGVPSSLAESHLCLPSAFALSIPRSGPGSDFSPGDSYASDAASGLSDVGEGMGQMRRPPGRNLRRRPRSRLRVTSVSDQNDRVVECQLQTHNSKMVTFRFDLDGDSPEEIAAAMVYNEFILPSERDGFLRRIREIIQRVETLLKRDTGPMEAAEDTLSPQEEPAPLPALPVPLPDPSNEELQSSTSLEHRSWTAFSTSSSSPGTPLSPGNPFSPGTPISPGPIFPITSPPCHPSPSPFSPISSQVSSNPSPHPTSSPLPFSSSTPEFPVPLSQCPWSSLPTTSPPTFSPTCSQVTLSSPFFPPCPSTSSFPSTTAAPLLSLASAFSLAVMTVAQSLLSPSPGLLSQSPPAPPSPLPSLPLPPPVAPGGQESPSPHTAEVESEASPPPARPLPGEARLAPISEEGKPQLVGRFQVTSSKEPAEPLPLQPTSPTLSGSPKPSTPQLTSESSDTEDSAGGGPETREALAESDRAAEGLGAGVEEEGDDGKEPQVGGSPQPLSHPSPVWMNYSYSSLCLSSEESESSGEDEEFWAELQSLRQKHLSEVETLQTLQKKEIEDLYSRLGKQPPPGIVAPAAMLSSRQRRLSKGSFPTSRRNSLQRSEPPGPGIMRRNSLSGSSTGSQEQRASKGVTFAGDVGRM
Serine/threonine-protein kinase DCLK3 (Homo sapiens), sequence (Q9C098 whole entry, canonical isoform): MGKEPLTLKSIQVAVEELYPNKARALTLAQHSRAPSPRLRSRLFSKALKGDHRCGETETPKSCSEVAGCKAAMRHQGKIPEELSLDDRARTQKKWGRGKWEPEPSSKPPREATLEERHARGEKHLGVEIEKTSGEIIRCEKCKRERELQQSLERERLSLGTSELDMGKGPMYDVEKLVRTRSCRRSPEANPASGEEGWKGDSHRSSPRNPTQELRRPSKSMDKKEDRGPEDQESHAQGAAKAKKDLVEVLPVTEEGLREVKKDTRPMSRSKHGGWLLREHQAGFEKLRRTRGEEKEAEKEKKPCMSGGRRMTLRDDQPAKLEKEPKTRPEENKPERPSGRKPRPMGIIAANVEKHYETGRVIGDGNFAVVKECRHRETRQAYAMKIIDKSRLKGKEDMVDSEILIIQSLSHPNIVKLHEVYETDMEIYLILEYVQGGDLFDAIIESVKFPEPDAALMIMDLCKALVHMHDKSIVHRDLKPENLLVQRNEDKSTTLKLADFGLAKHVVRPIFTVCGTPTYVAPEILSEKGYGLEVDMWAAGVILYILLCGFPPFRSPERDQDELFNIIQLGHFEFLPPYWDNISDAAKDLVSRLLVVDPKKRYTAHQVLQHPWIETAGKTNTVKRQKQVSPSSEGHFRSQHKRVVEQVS
Calcium/calmodulin-dependent protein kinase type 1G (Homo sapiens), sequence (Q96NX5 whole entry, canonical isoform): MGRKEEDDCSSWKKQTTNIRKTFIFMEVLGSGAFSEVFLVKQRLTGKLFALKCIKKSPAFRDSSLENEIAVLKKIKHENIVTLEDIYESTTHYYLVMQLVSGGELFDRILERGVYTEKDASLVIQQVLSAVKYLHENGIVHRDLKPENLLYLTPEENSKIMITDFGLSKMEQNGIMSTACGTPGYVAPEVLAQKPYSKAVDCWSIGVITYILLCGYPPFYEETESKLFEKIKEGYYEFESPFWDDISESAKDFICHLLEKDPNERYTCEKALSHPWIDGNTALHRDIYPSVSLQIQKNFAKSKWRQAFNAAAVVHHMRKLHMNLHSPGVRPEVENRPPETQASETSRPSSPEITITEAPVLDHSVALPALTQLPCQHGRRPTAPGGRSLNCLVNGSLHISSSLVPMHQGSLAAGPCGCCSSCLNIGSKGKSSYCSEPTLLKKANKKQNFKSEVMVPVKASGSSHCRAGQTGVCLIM

Cc1cc(NC(=O)c2cccc(S(F)(F)(F)(F)F)c2)cc(-n2ccn3nc(-c4cccnc4)cc23)c1 [BAY-309]
residual activity [1, 45]: 100% | residual activity [2, 45]: 100% | residual activity [3, 45]: 82% | residual activity [4, 45]: 100% | inhibition [5]: 21.9% | residual activity [6, 45]: 99.7% | residual activity [7, 45]: 100% | residual activity [8, 45]: 30.3% | residual activity [9, 45]: 71.8% | residual activity [10, 45]: 80% | residual activity [11, 45]: 100% | residual activity [12, 45]: 100% | residual activity [13, 45]: 62.7% | residual activity [14, 45]: 93.3% | residual activity [15, 45]: 66.2% | residual activity [16, 45]: 100% | residual activity [17, 45]: 91.4% | residual activity [18, 45]: 100% | residual activity [19, 45]: 85.2% | residual activity [20, 45]: 100% | residual activity [21, 45]: 100% | residual activity [22, 45]: 51.3% | residual activity [23, 45]: 35.9% | inhibition [24]: 5.89% | residual activity [25, 45]: 100% | residual activity [26, 45]: 97.6% | inhibition [27]: 46.1% | residual activity [28, 45]: 100% | residual activity [29, 45]: 82.9% | residual activity [30, 45]: 100% | residual activity [31, 45]: 72% | residual activity [32, 45]: 95.6% | residual activity [33, 45]: 100% | residual activity [34, 45]: 100% | residual activity [35, 45]: 66.6% | residual activity [36, 45]: 100% | residual activity [37, 45]: 37.6% | Ki ([38]; read-out: Ki): 10000 nM | residual activity (Angiopoietin-1 receptor; [45]): 84.2% | residual activity [39, 45]: 50.4% | residual activity [40, 45]: 100% | residual activity [41, 45]: 72.5% | residual activity [42, 45]: 100% | inhibition [43]: 9.28% | residual activity [44, 45]: 63.7%

Cc1cc(C)c(-n2ccn3nc(-c4cccnc4)cc23)cc1NC(=O)c1cc(C#N)cc(S(F)(F)(F)(F)F)c1 [BAY-826]
residual activity [1, 46]: 88.7% | residual activity [2, 46]: 87% | residual activity [3, 46]: 98.8% | residual activity [4, 46]: 100% | inhibition [5]: -4.7% | residual activity [6, 46]: 80.6% | residual activity [7, 46]: 100% | residual activity [8, 46]: 100% | residual activity [9, 46]: 90.9% | residual activity [10, 46]: 89.1% | residual activity [11, 46]: 83.5% | residual activity [12, 46]: 78.3% | residual activity [13, 46]: 100% | residual activity [14, 46]: 74.4% | residual activity [15, 46]: 93% | residual activity [16, 46]: 85.8% | residual activity [17, 46]: 100% | residual activity [18, 46]: 100% | residual activity [19, 46]: 95% | residual activity [20, 46]: 78.1% | residual activity [21, 46]: 83.5% | residual activity [22, 46]: 100% | residual activity [23, 46]: 91.8% | inhibition [24]: -3.02% | residual activity [25, 46]: 3% | residual activity [26, 46]: 100% | inhibition [27]: 25.6% | residual activity [28, 46]: 83.3% | residual activity [29, 46]: 89.4% | residual activity [30, 46]: 89.6% | residual activity [31, 46]: 86% | residual activity [32, 46]: 92% | residual activity [33, 46]: 100% | residual activity [34, 46]: 80.1% | residual activity [35, 46]: 84.4% | residual activity [36, 46]: 100% | residual activity [37, 46]: 100% | Ki ([38]; read-out: Ki): 125 nM | Ki ([38]; read-out: pKi (converted)): 112 nM | residual activity (Angiopoietin-1 receptor; [46]): 3.1% | residual activity [39, 46]: 71.2% | residual activity [40, 46]: 97.4% | residual activity [41, 46]: 77.8% | residual activity [42, 46]: 87.7% | inhibition [43]: 24.8% | residual activity [44, 46]: 62.5%
